According to publication PMC11876671, “Investigating blood–brain barrier penetration and neurotoxicity of natural products for central nervous system drug development” (Scientific Reports, 2025):

Assays:
in vitro = settings: PAMPA, PAMPA-BBB Pe
[1] = tested on: GFP-labeled iPSC-derived human cortical glutamatergic neurons; test: cells; format: cell-based; settings: Homo sapiens, Neuron; Table S1; total neurite length, 48 hr; head prints no unit, µM per Table 1 and Fig. 5; read-out: TNL AC50 (48 hr)
[2] = for PAMPA-BBB Pe: Table S2: compounds exhibiting moderate to high PAMPA-BBB permeability; for PAMPA-BBB Pe(10^-6 cm/sec): Table S3: compounds exhibiting low PAMPA-BBB permeability
[3] = Table S1, 60 min, room temperature, 0.05 mM
[4] = Table S2: compounds exhibiting moderate to high PAMPA-BBB permeability

| SMILES | Papp (in vitro; [3]) | AC50 [1] | PAMPA-BBB Pe [2] | also measured |
| --- | --- | --- | --- | --- |
| COc1cc(C)cc(O)c1 [3-methoxy-5-methylphenol] | 49.7 ×10⁻⁶ cm/s | 13.4 µM | – | – |
| C/C(=C\COc1c2ccoc2cc2oc(=O)ccc12)CCC(O)C(C)(C)O (centres unmarked) [6,7-dihydroxy Bergamottin] | 54.7 ×10⁻⁶ cm/s | 6.03 µM | – | – |
| COC1=C[C@@]23CCN(C)[C@H](Cc4ccc(OC)c(O)c42)C3=CC1=O [(-)-Sinoacutine] | 11.5 ×10⁻⁶ cm/s | 15.2 µM | – | – |
| COC(=O)[C@@H]1[C@@H]2C[C@H]3c4[nH]c5ccccc5c4CCN3C[C@@H]2CC[C@@H]1O [Beta-yohimbine] | – | 11.8 µM | – | Papp (in vitro): 41.8 ×10⁻⁶ cm/s |
| S=c1ccss1 [D3T, 3H-1,2-dithiole-3-thione] | 97.8 ×10⁻⁶ cm/s | 51.2 µM | – | – |
| COc1cc2c(c(OC)c1OC)-c1c(cc(OC)c(OC)c1OC)C[C@H](C)[C@H](C)C2 [Deoxyschizandrin] | 171 ×10⁻⁶ cm/s | 15.9 µM | – | – |
| O=c1c(-c2ccc(O)cc2)coc2cc(O)cc(O)c12 [Genistein] | 35.4 ×10⁻⁶ cm/s | 33.4 µM | – | Papp (in vitro; [4]): 35 ×10⁻⁶ cm/s |
| CCOc1ccc(O)cc1 [Hydroquinone monoethyl ether] | 35 ×10⁻⁶ cm/s | 13.6 µM | – | – |
| CC(C)=CCOc1c2occc2cc2ccc(=O)oc12 [Imperatorin] | 160 ×10⁻⁶ cm/s | 16.7 µM | – | – |
| CO[C@@H]1[C@@H](O[C@@H]2O[C@H](C)[C@@H](O[C@H]3C[C@@](C)(O)[C@@H](OC(=O)CC(C)C)[C@H](C)O3)[C@H](N(C)C)[C@H]2O)[C@@H](CC=O)C[C@@H](C)C(=O)/C=C/[C@@H]2O[C@H]2C[C@@H](C)OC(=O)C[C@H]1OC(C)=O [Magnamycin A/Carbomycin A] | 31.9 ×10⁻⁶ cm/s | 27.1 µM | – | Papp (in vitro; [4]): 32 ×10⁻⁶ cm/s |
| CC1(C)OC1COc1c2occc2cc2ccc(=O)oc12 (centres unmarked) [NCGC00160222-01] | 210 ×10⁻⁶ cm/s | 24.5 µM | – | – |
| CN1CCC2=C[C@@H](O)[C@@H]3OC(=O)c4cc5c(cc4[C@H]3C21)OCO5 (some centres unmarked) [NCGC00160234-01] | 22.3 ×10⁻⁶ cm/s | 2.22 µM | – | Papp (in vitro; [4]): 22 ×10⁻⁶ cm/s |
| CC(=O)c1c(O)cccc1O [NCGC00166008-01] | 44.7 ×10⁻⁶ cm/s | 1.98 µM | – | – |
| COc1ccc2c(c1)O[C@@H]1COc3cc(OC)c(OC)cc3[C@@H]1C2=O [NCGC00178970-02] | – | – | 355 10^-6 cm/sec | – |
| COc1ccc([C@H]2COc3c(ccc(O)c3OC)C2)c(OC)c1O [NCGC00179004-02] | – | – | 127 10^-6 cm/sec | – |
| CC(=O)O[C@H]1C[C@@H](OC(C)=O)C(C)(C)C2C[C@@H](OC(C)=O)[C@]3(C)C(CC[C@@]4(C)[C@H](c5ccoc5)OC(=O)[C@H]5O[C@]543)[C@]21C (some centres unmarked) [NCGC00179019-03] | – | – | – | PAMPA-BBB Pe(10^-6 cm/sec) [2]: 2.7 10^-6 cm/sec |
| C=C(C)[C@H]1COc2cc3oc(=O)ccc3cc2O1 [NCGC00179107-03] | – | – | 152 10^-6 cm/sec | – |
| CC1(C)C(=O)C=C[C@@]2(C)C1CC(=O)[C@]1(C)C2CC[C@@]2(C)[C@H](c3ccoc3)OC(=O)[C@H]3O[C@]321 (some centres unmarked) [NCGC00179119-02] | – | – | – | PAMPA-BBB Pe(10^-6 cm/sec) [2]: <1 10^-6 cm/sec |
| CC1(C)C(=O)C=C[C@@]2(C)C1C[C@@H](O)[C@]1(C)C2CC[C@@]2(C)[C@H](c3ccoc3)OC(=O)[C@H]3O[C@]321 (some centres unmarked) [NCGC00179150-03] | – | – | 108 10^-6 cm/sec | – |
| COc1cc(C(=O)OC2C[C@H]3CC[C@@H](C2)N3C)ccc1O (some centres unmarked) [NCGC00179405-02] | – | – | – | PAMPA-BBB Pe(10^-6 cm/sec) [2]: 8.5 10^-6 cm/sec |
| CO[C@H]1C=C2CCN(C)[C@H]2C2c3cc4c(cc3C(=O)O[C@@H]21)OCO4 (some centres unmarked) [NCGC00179416-02] | – | – | 19 10^-6 cm/sec | – |
| COc1c2ccoc2nc2c(OC)c(OC[C@@H](O)C(C)(C)O)ccc12 [NCGC00179458-02] | – | – | 12 10^-6 cm/sec | – |
| COc1cc2c(cc1O)[C@@H]1Cc3ccc(OC)c(O)c3CN1CC2 [NCGC00179539-03] | – | – | 78 10^-6 cm/sec | – |
| O=C(CO)c1c[nH]c2ccccc12 [NCGC00182562-01] | – | – | – | PAMPA-BBB Pe(10^-6 cm/sec) [2]: 6.7 10^-6 cm/sec |
| Cc1c(O)c2c(c(C(=O)/C=C/c3ccccc3)c1O)OC(C)(C)C=C2 [NCGC00187465-01] | – | – | – | PAMPA-BBB Pe(10^-6 cm/sec) [2]: <1 10^-6 cm/sec |
| CC1(C)C=Cc2c(ccc(C(=O)/C=C/c3ccccc3)c2O)O1 [NCGC00187466-01] | 10.2 ×10⁻⁶ cm/s | 2.18 µM | – | – |
| CC1(C)C=Cc2c(ccc(C(=O)/C=C/c3ccccc3)c2O)O1 [NCGC00187466-02] | – | – | 10 10^-6 cm/sec | – |
| COc1cc(O)c2c(c1)/C=C/C[C@H](O)[C@H](O)[C@H](O)CCC[C@H](C)OC2=O [NCGC00189513-01] | – | – | 245 10^-6 cm/sec | – |
| CC1=CC(=O)/C(=C(/C)O)C(=O)O1 [NCGC00254206-01] | – | – | – | PAMPA-BBB Pe(10^-6 cm/sec) [2]: 3.3 10^-6 cm/sec |
| NC(=O)Nc1ccc(Cl)c(Cl)c1 [NCGC00255466-01] | – | – | 148 10^-6 cm/sec | – |
